Laboratory results as given in patent publication US20260062422A1 (Halda Therapeutics OpCo, Inc., priority 2022, published 2026).

How the values were obtained:
[1] = tested on: T-Rex 293 cell line SC3 cells having increased expression of androgen receptor protein due to exposure to doxycycline; experiment: Cellular growth inhibition, T-Rex 293 SC3 cells with doxycycline (androgen receptor induced), CellTiter-Glo; type: cell-based; conditions: T-Rex 293 SC3 cells with 10 ng/mL doxycycline (increased androgen receptor expression)
Outline: (§1)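 Growth inhibition was compared in a T-Rex 293 clone with and without doxycycline (10 ng/mL)-driven androgen receptor overexpression. Compounds were applied for 72 h in hormone-depleted serum, and GI50 came from four-parameter curves of CellTiter-Glo signal.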

[2] = tested on: T-Rex 293 cell line SC3 cells lacking increased expression of androgen receptor protein; experiment: Cellular growth inhibition, T-Rex 293 SC3 cells without doxycycline, CellTiter-Glo; type: cell-based; conditions: T-Rex 293 SC3 cells not exposed to doxycycline, CellTiter-Glo 2.0
Outline: as §1

[3] = tested on: VCaP cells; experiment: Cellular growth inhibition assay for VCaP cells, CellTiter-Glo; type: cell-based, human; conditions: 72 hours treatment, CellTiter-Glo 2.0
Outline: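 GI50 values come from four-parameter curve fits of luminescence data normalized to a zero baseline. Compound, in medium with 0.5% DMSO, was added one day after plating and left for 72 h before CellTiter-Glo 2.0 addition.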

[4] = tested on: T47D cells; experiment: Cellular growth inhibition assay for T47D cells, CellTiter-Glo; type: cell-based, human; conditions: 72 hours treatment, CellTiter-Glo 2.0 cell viability
Outline: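 Luminescence from CellTiter-Glo 2.0 after 72 h of compound exposure gives the viability signal. Cells grew in insulin-supplemented (0.2 units/mL) DMEM with 10% FBS and were treated one day after seeding at 0.5% DMSO. GI50 values come from four-parameter nonlinear regression.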

Row | GI50 ([3]; Homo sapiens, VCaP, 72 h) [nM] | GI50 ([4]; Homo sapiens, T47D, 72 h) [nM] | GI50 [3] [nM] | GI50 [4] [nM] | Compound | GI50 ([1]; 72 h) [nM] | GI50 ([2]; 72 h) [nM] | GI50 ([1]; 72 hours) [nM] | GI50 ([2]; 72 hours) [nM]
1 | < 500 | > 3000 | – | – | Cc1noc2c1-c1ccccc1C(c1ccc(O[C@H]3C[C@]4(CN(c5ncc(C(=O)N[C@H]6C(C)(C)[C@H](Oc7ccc(C#N)c(Cl)c7)C6(C)C)cn5)CCO4)C3)cc1)=N[C@@H]2Cc1ncco1 [Compound I-224] | < 500 | > 3000 | – | –
2 | 1500 to 3000 | 500 to 1500 | – | – | Cc1sc2c(c1C)C(c1ccc(C=C3CC4(CCCN(c5ncc(C(=O)N[C@H]6C(C)(C)[C@H](Oc7ccc(C#N)c(Cl)c7)C6(C)C)cn5)C4)C3)cc1)=N[C@@H](Cc1ncco1)c1nnc(C)n1-2 [Compound I-225, N-[3-(3-chloro-4-cyano-phenoxy)-2,2,4,4-tetramethyl-cyclobutyl]-2-[2-[[4-[(9S)-4,5,13-trimethyl-9-(oxazol-2-ylmethyl)-3-thia-1,8,11,12-tetrazatricyclo[8.3.0.02,6]trideca-2(6),4,7,10,12-pentaen-7-yl]phenyl]methylene]-6-azaspiro[3.5]nonan-6-yl]pyrimidine-5-carboxamide] | < 500 | 500 to 1500 | – | –
3 | < 500 | > 3000 | – | – | Cc1sc2c(c1C)C(c1ccc(OC3CC4(CCN(c5ncc(C(=O)N[C@H]6C(C)(C)[C@H](Oc7ccc(C#N)c(Cl)c7)C6(C)C)cn5)CC4)C3)cc1)=N[C@@H](CC#N)c1nnc(C)n1-2 [Compound I-229, N-[3-(3-chloro-4-cyano-phenoxy)-2,2,4,4-tetramethyl-cyclobutyl]-2-[2-[4-[(9S)-9-(cyanomethyl)-4,5,13-trimethyl-3-thia-1,8,11,12-tetrazatricyclo[8.3.0.02,6]trideca-2(6),4,7,10,12-pentaen-7-yl]phenoxy]-7-azaspiro [3.5]nonan-7-yl]pyrimidine-5-carboxamide] | < 500 | > 3000 | – | –
4 | < 500 | > 3000 | – | – | Cc1sc2c(c1C)C(c1ccc(OC3CC4(CCN(c5ncc(C(=O)N[C@H]6C(C)(C)[C@H](Oc7ccc(C#N)c(Cl)c7)C6(C)C)cn5)CC4)C3)cc1)=N/C(=C/c1ncco1)c1nnc(C)n1-2 [Compound I-230, N-[3-(3-chloro-4-cyano-phenoxy)-2,2,4,4-tetramethyl-cyclobutyl]-2-[2-[4-[(9E)-4,5,13-trimethyl-9-(oxazol-2-ylmethylene)-3-thia-1,8,11,12-tetrazatricyclo[8.3.0.02,6]trideca-2(6),4,7,10,12-pentaen-7-yl]phenoxy]-7-azaspiro[3.5]nonan-7-yl]pyrimidine-5-carboxamide] | < 500 | > 3000 | – | –
5 | > 3000 | > 3000 | – | – | CNc1ccc2c(n1)C(c1ccc(OC3CC4(CCCN(c5ncc(C(=O)N[C@H]6C(C)(C)[C@H](Oc7ccc(C#N)c(Cl)c7)C6(C)C)cn5)C4)C3)cc1)=NCc1onc(C)c1-2 [Compound I-231, N-[3-(3-chloro-4-cyano-phenoxy)-2,2,4,4-tetramethyl-cyclobutyl]-2-[2-[4-[3-methyl-12-(methylamino)-5-oxa-4,8,11-triazatricyclo [8.4.0.02,6]tetradeca-1(10),2(6),3,8,11,13-hexaen-9-yl]phenoxy]-6-azaspiro[3.5]nonan-6-yl]pyrimidine-5-carboxamide] | < 500 | > 3000 | – | –
6 | < 500 | < 500 | – | – | CNc1ccc2c(n1)C(c1ccc(OC3CC4(CCN(c5ncc(C(=O)N[C@H]6C(C)(C)[C@H](Oc7ccc(C#N)c(Cl)c7)C6(C)C)cn5)CC4)C3)cc1)=NCc1onc(C)c1-2 [Compound I-232] | < 500 | > 3000 | – | –
7 | 500 to 1500 | < 500 | – | – | Cc1sc2c(c1C)C(c1ccc(OC[C@H]3C[C@]4(CCCN(c5ncc(C(=O)N[C@H]6C(C)(C)[C@H](Oc7ccc(C#N)c(Cl)c7)C6(C)C)cn5)C4)C3)cc1)=N[C@@H](Cc1ncco1)c1nnc(C)n1-2 [Compound I-233] | < 500 | 1500 to 3000 | – | –
8 | < 500 | < 500 | – | – | Cc1sc2c(c1C)C(c1ccc(OC[C@H]3C[C@@]4(CCCN(c5ncc(C(=O)N[C@H]6C(C)(C)[C@H](Oc7ccc(C#N)c(Cl)c7)C6(C)C)cn5)C4)C3)cc1)=N[C@@H](Cc1ncco1)c1nnc(C)n1-2 [Compound I-234] | < 500 | 500 to 1500 | – | –
9 | < 500 | < 500 | – | – | Cc1sc2c(c1C)C(c1ccc(N3CCN(C4CN(c5ncc(C(=O)NC6C(C)(C)C(Oc7ccc(C#N)c(Cl)c7)C6(C)C)cn5)C4)CC3)cc1)=N[C@@H](CC(=O)OC(C)(C)C)c1nnc(C)n1-2 (stereo partly drawn) [Compound I-236, tert-butyl 2-[(9S)-7-[4-[4-[1-[5-[[3-(3-chloro-4-cyano-phenoxy)-2,2,4,4-tetramethyl-cyclobutyl]carbamoyl]pyrimidin-2-yl]azetidin-3-yl]piperazin-1-yl]phenyl]-4,5,13-trimethyl-3-thia-1,8,11,12-tetrazatricyclo[8.3.0.02,6]trideca-2(6),4,7,10,12-pentaen-9-yl]acetate] | < 500 | 500 to 1500 | – | –
10 | – | – | < 500 | < 500 | Cc1sc2c(c1C)C(c1ccc(C3CC3C3CC4(CCN(c5ncc(C(=O)N[C@H]6C(C)(C)[C@H](Oc7ccc(C#N)c(Cl)c7)C6(C)C)cn5)CC4)C3)cc1)=N[C@@H](Cc1ncco1)c1nnc(C)n1-2 (stereo partly shown) [Compound I-238] | – | – | < 500 | > 3000
11 | > 3000 | > 3000 | – | – | Cc1sc2c(c1C)C(c1ccc(CC[C@H]3C[C@]4(CCCN(c5ncc(C(=O)N[C@H]6C(C)(C)[C@H](Oc7ccc(C#N)c(Cl)c7)C6(C)C)cn5)C4)C3)cc1)=N[C@@H](Cc1ncco1)c1nnc(C)n1-2 [Compound I-239] | > 3000 | > 3000 | – | –
12 | > 3000 | > 3000 | – | – | Cc1sc2c(c1C)C(c1ccc(CC[C@H]3C[C@@]4(CCCN(c5ncc(C(=O)N[C@H]6C(C)(C)[C@H](Oc7ccc(C#N)c(Cl)c7)C6(C)C)cn5)C4)C3)cc1)=N[C@@H](Cc1ncco1)c1nnc(C)n1-2 [Compound I-240] | > 3000 | > 3000 | – | –
13 | < 500 | < 500 | – | – | Cc1sc2c(c1C)C(c1ccc(CCN3CC[C@]4(C3)CN(c3ncc(C(=O)N[C@H]5C(C)(C)[C@H](Oc6ccc(C#N)c(Cl)c6)C5(C)C)cn3)CCO4)cc1)=N[C@@H](Cc1ncco1)c1nnc(C)n1-2 [Compound I-242] | < 500 | < 500 | – | –
14 | < 500 | < 500 | – | – | Cc1sc2c(c1C)C(c1ccc(CCN3CC[C@@]4(C3)CN(c3ncc(C(=O)N[C@H]5C(C)(C)[C@H](Oc6ccc(C#N)c(Cl)c6)C5(C)C)cn3)CCO4)cc1)=N[C@@H](Cc1ncco1)c1nnc(C)n1-2 [Compound I-243] | < 500 | < 500 | – | –
15 | > 3000 | > 3000 | – | – | Cc1sc2c(c1C)C(c1ccc(C[C@H]3C[C@@]4(CN(c5ncc(C(=O)N[C@H]6C(C)(C)[C@H](Oc7ccc(C#N)c(Cl)c7)C6(C)C)cn5)CCO4)C3)cc1)=N[C@@H](Cc1ncco1)c1nnc(C)n1-2 [Compound I-244] | < 500 | > 3000 | – | –
16 | < 500 | < 500 | – | – | Cc1sc2c(c1C)C(c1ccc(C[C@H]3C[C@]4(CN(c5ncc(C(=O)N[C@H]6C(C)(C)[C@H](Oc7ccc(C#N)c(Cl)c7)C6(C)C)cn5)CCO4)C3)cc1)=N[C@@H](Cc1ncco1)c1nnc(C)n1-2 [Compound I-245] | < 500 | < 500 | – | –
